Experiments:
[1] = tested on: human saphenous vein; assay: Histology (H&E) for cellularity and matrix (Example 1); settings: 1.0% Cholate at 48° C.
Experimental: Samples of human saphenous veins 10 mm in length were placed in each of the test solution at 37° C. or 48° C. for both 6 and 24 hours while continuously shaking. Samples were then rinsed in PBS at room temperature for 10 minutes while continuously shaking. Following the rinse step, the samples were cut in half and either prepared for histology or immunohistochemistry.
Samples were placed in 10% buffered formalin immediately following the rinse step and remained there for at least 24 hours before further preparation. Then, the samples were embedded in paraffin and stained with hematoxylin and eosin (H&E) to determine cellularity.
The results of the immunohistochemical stain were compared to histology slides stained for cellularity (FIGS. 7 to 10). […] The extracellular matrix is preserved in each segment except with 1.0% Cholate at 48° C.

[2] = Biocompatibility of the detergent injected in a rat; type: in vivo, Sprague Dawley rats; settings: 0.25%, 0.1%, 0.01%, 0.001% in four sites, 6 weeks after surgery
Experimental: Four implants from each group go into one rat for a total of 7 rats and 28 implant sites. An eighth rat is injected in four sites with decreasing concentrations of sodium deoxycholate (0.25%, 0.1%, 0.01%, 0.001%) to measure the biocompatibility of the detergent.

[3] = tested on: collagen; assay: Collagen denaturation, quantitative enzyme digestion assay (matrix integrity); settings: Triton 1.0%, Cholate 0.25%, 48° C., 24 hours, constant agitation (FIG. 11)
Experimental: One of the major structural components of the extracellular matrix that gives veins their strength is collagen. Damage to collagen can result in mechanical failures such as increased compliance or aneurism formation. It can also result in a cellular response due the exposure of the triple helix when stability is compromised. The amount of collagen denaturation was assessed to evaluate processing conditions with a quantitative enzyme digestion assay. […] Digested and undigested fractions are separated and hydrolyzed with concentrated hydrochloric acid (HCl) to release free amino acids from each fraction. Following neutralization of the acid in 1 N NaOH, levels of hydroxyproline (an amino acid present in high concentrations in collagen) are assessed in each fraction by a calorimetric method at a wavelength of 550 nm (Chloramine T binding, and reduction of the substrate DAB to a colored end product). The level of denatured collagen in a given sample is then expressed as a percent of the trypsin soluble fraction to the sum of both trypsin soluble and trypsin insoluble fractions.
Achieving the appropriate log reduction should not come at the expense of the integrity of the extracellular matrix. […] The effect of hydrogen peroxide at 6% at 40° C. and 50° C. on collagen was compared to PAA at 0.1% at the same specified temperatures.
Digested and undigested fractions are separated and hydrolyzed with concentrated hydrochloric acid (HCl) to release free amino acids from each fraction. Following neutralization of the acid in 1 N NaOH, levels of hydroxyproline (an amino acid present in high concentrations only in collagen) are assessed in each fraction by a calorimetric method (Chloramine T binding, and reduction of the substrate DAB to a colored end product). The level of denatured collagen in a given sample is then expressed as a percent of the trypsin soluble fraction to the sum of both trypsin soluble and trypsin insoluble fractions.

[4] = tested on: class I MHC antigens in human saphenous vein; assay: Immunohistochemical stain for class I MHC antigens after decellularization (Example 1); settings: high concentrations and high temperatures
Experimental: The effectiveness of cell and cellular debris removal was evaluated using two detergent and two enzyme solutions at various concentrations (Table 2). […] One treatment group combined Triton-X 100 with sodium deoxycholate. Trypsin alone at 0.05% (w/v) or 1.0% (w/v) and in combination with 0.02% (w/v) EDTA were the enzyme solutions used in the decellularization process.
Samples were then rinsed in PBS at room temperature for 10 minutes while continuously shaking. Following the rinse step, the samples were cut in half and either prepared for histology or immunohistochemistry.
Immunohistochemistry was used to determine the level of antigens remaining in the tissue after treatment. […] Samples were prepared in frozen blocks and sectioned with a cryostat. The sections were thawed and then rinsed for blocking and antibody staining. Sections were incubated for 30 minutes in primary antibody (mouse anti-HLA-ABC class I MHC) solution and then for anther 30 minutes in diluted biotinylated secondary antibody (Vector ABC Elite kit) solution. An enzyme substrate, NovaRed (Vector), was used to stain the antibodies red. The counter stain was hematoxylin providing a blue contrast.
A Zeiss Axiophot 2 microscope with a motorized Ludl scanning stage was used with tile field mapping at 5× to capture the entire image in one frame. Particle analysis was performed in Image J to determine the ratio of antigen staining (red) to the total tissue sample.
A blue and green filter was applied to only allow red to pass. Obvious areas of antigen staining were removed due to this variation in red hue. […] All samples were compared to their negatives for a percentage of red staining.
This procedure was applied to all images. […] The treatment groups are labeled according to the detergent or enzyme used followed by the processing conditions. For the Trypsin and Trypsin+EDTA groups, the concentrations ranged from 0.05% (L) to 1.0% (H), the processing temperatures were 37° C. (L), 48° C. (M) and 55° C. (H), and the processing times were 6 hrs (L), 17 hrs (M) and 24 hrs (H).

Q: With sodium deoxycholate as the substance, how does the “extracellular matrix in histology” value [1] read?
A: large holes within the venous wall and separation between the fibers

Q: What about the “response to injected detergent” value [2] of the same substance?
A: No response was noted

Q: What about the “collagen degradation compared to untreated controls” value [3] of the same substance?
A: A significant degradative effect was not seen

Q: And the “removal of class I MHC staining” value [4]?
A: approximately 100%

Q: What about the staining [4] of the same substance?
A: approximately 0%
